12 molecules from patent US20260295053A1, “COMPOUNDS FOR DEGRADATION AND INHIBITION OF KRAS (G12D) PROTEIN” (Shenzhen Ionova Life Science Co., Ltd., priority 2023, published 2026) can be followed below.

Structures are written as SMILES. Where only a bound is given, the exact number is not on record here.

Experiment [1] concerns the target T1, KRAS (G12D) (Homo sapiens, UniProt P01116, G12D).
T1 construct: in-cell western with KRAS G12D antibody after 24 h
Description: KRAS (G12D) cellular degradation assay in AsPC-1 cells. The experiment is classed as cell-based. Particulars: 24 hours, antibody fluorescence (Odyssey CLX), DC50 half-maximal degradation concentration. The procedure, abridged:
(§1)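 Degradation: 22,000 cells/well grown to ~90% confluency, 24 h compound, fixed/permeabilised, anti-KRAS G12D + β-actin antibodies, near-IR fluorescence, DC50. Proliferation: 3,500 cells/well overnight, 6 d compound, CellTiter Glo luminescence, IC50. Dosing […]–1.5 nM final, 1:3 steps.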

The test system of experiment [2] is AsPC-1 cells. Description: AsPC-1 cell proliferation assay (CellTiter Glo). Particulars: 6 days. The experiment is classed as cell-based. The procedure, abridged:
as §1
(In general: In ATP-based viability assays light output follows the ATP content of the culture.)

T1 sequence (P01116 1-188 isoform P01116-2 G12D): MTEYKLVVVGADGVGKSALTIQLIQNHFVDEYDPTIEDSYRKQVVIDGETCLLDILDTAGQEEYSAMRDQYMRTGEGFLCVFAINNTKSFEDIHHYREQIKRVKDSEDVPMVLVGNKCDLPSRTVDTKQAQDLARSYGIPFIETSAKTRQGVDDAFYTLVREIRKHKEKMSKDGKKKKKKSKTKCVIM

`CCn1nccc1-c1ccc([C@H](CO)NC(=O)[C@@H]2C[C@@H](O)CN2C(=O)[C@H](C(C)C)n2cc(-c3ccc(COc4c(-c5c(C)c(F)cc6[nH]ncc56)c(C5CC5)cc5c(N6CCCCCC6)nc(OC[C@H](C)OC)nc45)cc3)nn2)cc1` [Example 177, (2S,4R)-1-((2S)-2-(4-(4-(((4-(azepan-1-yl)-6-cyclopropyl-7-(6-fluoro-5-methyl-1H-indazol-4-yl)-2-((S)-2-methoxypropoxy)quinazolin-8-yl)oxy)methyl)phenyl)-1H-1,2,3-triazol-1-yl)-3-methylbutanoyl)-N—((R)-1-(4-(1-ethyl-1H-pyrazol-5-yl)phenyl)-2-hydroxyethyl)-4-hydroxypyrrolidine-2-carboxamide]: the DC50 (in general, the concentration giving 50% degradation) in experiment [1] was in the range of 10 to 100 nM. For the same molecule, the IC50 (commonly the concentration at which inhibition is half-maximal) in experiment [2] (Homo sapiens, ASPC1, 144 h) was in the range of 10 to 100 nM.
Turning to `Cc1ncsc1-c1ccc([C@H](CO)NC(=O)[C@@H]2C[C@@H](O)CN2C(=O)[C@H](C(C)C)n2cc(-c3ccc(COc4c(-c5c(C)c(F)cc6[nH]ncc56)c(C5CC5)cc5c(N6C[C@@H]7C[C@H]6CN7)nc(OC6CC7(COC7)C6)nc45)cc3)nn2)cc1` [Example 129, (2S,4R)-1-((2S)-2-(4-(4-(((2-((2-oxaspiro[3.3]heptan-6-yl)oxy)-4-((1S,4S)-2,5-diazabicyclo[2.2.1]heptan-2-yl)-6-cyclopropyl-7-(6-fluoro-5-methyl-1H-indazol-4-yl)quinazolin-8-yl)oxy)methyl)phenyl)-1H-1,2,3-triazol-1-yl)-3-methylbutanoyl)-4-hydroxy-N—((R)-2-hydroxy-1-(4-(4-methylthiazol-5-yl)phenyl)ethyl)pyrrolidine-2-carboxamide], in experiment [1], the DC50 is < 10 nM. For the same molecule, the IC50 in experiment [2] (Homo sapiens, ASPC1, 144 h) is < 10 nM.
Turning to `CO[C@@H](C)COc1nc(N(C)[C@H]2CCNC2)c2cc(C3CC3)c(-c3c(C)c(F)cc4[nH]ncc34)c(OCc3ccc(-c4cn([C@H](C(=O)N5C[C@H](O)C[C@H]5C(=O)N[C@H](c5ccc(-c6scnc6C)cc5)[C@H](C)O)C(C)C)nn4)cc3)c2n1` [Example 143, (2S,4R)-1-((2S)-2-(4-(4-(((6-cyclopropyl-7-(6-fluoro-5-methyl-1H-indazol-4-yl)-2-((S)-2-methoxypropoxy)-4-(methyl((S)-pyrrolidin-3-yl)amino)quinazolin-8-yl)oxy)methyl)phenyl)-1H-1,2,3-triazol-1-yl)-3-methylbutanoyl)-4-hydroxy-N-((1R,2S)-2-hydroxy-1-(4-(4-methylthiazol-5-yl)phenyl)propyl)pyrrolidine-2-carboxamide], the DC50 in experiment [1] was < 10 nM. In addition, the IC50 in experiment [2] is < 10 nM.
`CCn1nccc1-c1ccc([C@H](CO)NC(=O)[C@@H]2C[C@@H](O)CN2C(=O)[C@H](C(C)C)n2cc(-c3ccc(COc4c(-c5c(C)c(F)cc6[nH]ncc56)c(C5CC5)cc5c(N6C[C@H]7C[C@@H]6CN7)nc(OC6CCOCC6)nc45)cc3)nn2)cc1` (stereo in doubt) [Example 10, (2S,4R)-1-((2S)-2-(4-(4-(((4-((1R,4R)-2,5-diazabicyclo[2.2.1]heptan-2-yl)-6-cyclopropyl-7-(6-fluoro-5-methyl-1H-indazol-4-yl)-2-((tetrahydro-2H-pyran-4-yl)oxy)quinazolin-8-yl)oxy)methyl)phenyl)-1H-1,2,3-triazol-1-yl)-3-methylbutanoyl)-N—((R)-1-(4-(1-ethyl-1H-pyrazol-5-yl)phenyl)-2-hydroxyethyl)-4-hydroxypyrrolidine-2-carboxamide] returned a DC50 in experiment [1] of 10 to 100 nM. This molecule also came in with an IC50 in experiment [2] (Homo sapiens, ASPC1, 144 h) of 10 to 100 nM.
With `CCn1nccc1-c1ccc([C@H](CO)NC(=O)[C@@H]2C[C@@H](O)CN2C(=O)[C@H](C(C)C)n2cc(-c3ccc(COc4c(-c5c(C)c(F)cc6[nH]ncc56)c(C5CC5)cc5c(N6CC7CCC(C6)N7)nc(OC[C@H](C)OC)nc45)cc3)nn2)cc1` (single isomer, unassigned) [Example 9], the DC50 in experiment [1] is 10 to 100 nM. Moreover, the IC50 in experiment [2] is > 1000 nM.
`CCn1nccc1-c1ccc([C@H](CO)NC(=O)[C@@H]2C[C@@H](O)CN2C(=O)[C@H](C(C)C)n2cc(-c3ccc(COc4c(-c5c(C)c(F)cc6[nH]ncc56)c(C5CC5)cc5c(N6C[C@@H]7C[C@H]6CN7)nc(O[C@H]6C[C@H](OC)C6)nc45)cc3)nn2)c2c1CC2` [Example 160, (2S,4R)-1-((2S)-2-(4-(4-(((4-((1S,4S)-2,5-diazabicyclo[2.2.1]heptan-2-yl)-6-cyclopropyl-7-(6-fluoro-5-methyl-1H-indazol-4-yl)-2-((1r,3S)-3-methoxycyclobutoxy)quinazolin-8-yl)oxy)methyl)phenyl)-1H-1,2,3-triazol-1-yl)-3-methylbutanoyl)-N—((R)-1-(5-(1-ethyl-1H-pyrazol-5-yl)bicyclo[4.2.0]octa-1(6),2,4-trien-2-yl)-2-hydroxyethyl)-4-hydroxypyrrolidine-2-carboxamide]: the DC50 in experiment [1] is < 10 nM. The IC50 in experiment [2] (Homo sapiens, ASPC1, 144 h) is < 10 nM.
Regarding `CCn1nccc1-c1ccc([C@H](CO)NC(=O)[C@@H]2C[C@@H](O)CN2C(=O)[C@H](C(C)C)n2cc(-c3ccc(COc4c(-c5c(C)c(F)cc6[nH]ncc56)c(C5CC5)cc5c(N6C[C@H]7C[C@@H]6CN7)nc(OC[C@H](C)OC)nc45)cc3)nn2)cc1` (single isomer, unassigned) [Example 1A], the DC50 in experiment [1] was < 10 nM. Also, in experiment [2], the IC50 was < 10 nM.
Regarding `CCn1nccc1-c1ccc([C@H](CO)NC(=O)[C@@H]2C[C@@H](O)CN2C(=O)[C@H](C(C)C)n2cc(-c3ccc(COc4c(-c5c(C)c(F)cc6[nH]ncc56)c(C5CC5)cc5c(N6C[C@@H]7C[C@H]6CN7)nc(OC6CCN(S(C)(=O)=O)CC6)nc45)cc3)nn2)cc1` [Example 38, (2S,4R)-1-((2S)-2-(4-(4-(((4-((1S,4S)-2,5-diazabicyclo[2.2.1]heptan-2-yl)-6-cyclopropyl-7-(6-fluoro-5-methyl-1H-indazol-4-yl)-2-((1-(methylsulfonyl)piperidin-4-yl)oxy)quinazolin-8-yl)oxy)methyl)phenyl)-1H-1,2,3-triazol-1-yl)-3-methylbutanoyl)-N—((R)-1-(4-(1-ethyl-1H-pyrazol-5-yl)phenyl)-2-hydroxyethyl)-4-hydroxypyrrolidine-2-carboxamide], the DC50 in experiment [1] was < 10 nM. Also, the IC50 in experiment [2] (Homo sapiens, ASPC1, 144 h) is < 10 nM.
As to `CCn1nccc1-c1ccc([C@H](CO)NC(=O)[C@@H]2C[C@@H](O)CN2C(=O)[C@H](C(C)C)n2cc(-c3ccc(COc4c(-c5c(C)c(F)cc6[nH]ncc56)c(C5CC5)cc5c(N(C)[C@@H]6CCNC6)nc(O[C@H]6C[C@H](OC)C6)nc45)cc3)nn2)cc1` [Example 205, (2S,4R)-1-((2S)-2-(4-(4-(((6-cyclopropyl-7-(6-fluoro-5-methyl-1H-indazol-4-yl)-2-((1r,3R)-3-methoxycyclobutoxy)-4-(methyl((R)-pyrrolidin-3-yl)amino)quinazolin-8-yl)oxy)methyl)phenyl)-1H-1,2,3-triazol-1-yl)-3-methylbutanoyl)-N—((R)-1-(4-(1-ethyl-1H-pyrazol-5-yl)phenyl)-2-hydroxyethyl)-4-hydroxypyrrolidine-2-carboxamide], the DC50 in experiment [1] was < 10 nM. Further, the IC50 in experiment [2] (Homo sapiens, ASPC1, 144 h) is < 10 nM.
With `CCn1nccc1-c1ccc([C@H](CO)NC(=O)[C@@H]2C[C@@H](O)CN2C(=O)[C@H](C(C)C)n2cc(-c3ccc(COc4c(-c5c(C)c(F)cc6[nH]ncc56)c(C5CC5)cc5c(N(C)[C@H]6CCNC6)nc(OC[C@H](C)OC)nc45)cc3)nn2)c2c1CC2` [Example 169, (2S,4R)-1-((2S)-2-(4-(4-(((6-cyclopropyl-7-(6-fluoro-5-methyl-1H-indazol-4-yl)-2-((S)-2-methoxypropoxy)-4-(methyl((S)-pyrrolidin-3-yl)amino)quinazolin-8-yl)oxy)methyl)phenyl)-1H-1,2,3-triazol-1-yl)-3-methylbutanoyl)-N—((R)-1-(5-(1-ethyl-1H-pyrazol-5-yl)bicyclo[4.2.0]octa-1(6),2,4-trien-2-yl)-2-hydroxyethyl)-4-hydroxypyrrolidine-2-carboxamide], the 50% degradation concentration (DC50) in experiment [1] is < 10 nM. Further, in experiment [2] (Homo sapiens, ASPC1, 144 h), the IC50 was < 10 nM.
As to `Cc1ncsc1-c1ccc([C@H](CO)NC(=O)[C@@H]2C[C@@H](O)CN2C(=O)[C@H](C(C)C)n2cc(-c3ccc(COc4c(-c5c(C)c(F)cc6[nH]ncc56)c(C5CC5)cc5c(N6C[C@@H]7C[C@H]6CN7)nc(OCC6(C(F)F)CC6)nc45)cc3)nn2)cc1` [Example 79, (2S,4R)-1-((2S)-2-(4-(4-(((4-((1S,4S)-2,5-diazabicyclo[2.2.1]heptan-2-yl)-6-cyclopropyl-2-((1-(difluoromethyl)cyclopropyl)methoxy)-7-(6-fluoro-5-methyl-1H-indazol-4-yl)quinazolin-8-yl)oxy)methyl)phenyl)-1H-1,2,3-triazol-1-yl)-3-methylbutanoyl)-4-hydroxy-N—((R)-2-hydroxy-1-(4-(4-methylthiazol-5-yl)phenyl)ethyl)pyrrolidine-2-carboxamide], the DC50 in experiment [1] was < 10 nM. For the same molecule, the IC50 in experiment [2] (Homo sapiens, ASPC1, 144 h) was < 10 nM.
For the molecule `CCn1nccc1-c1ccc([C@H](CO)NC(=O)[C@@H]2C[C@@H](O)CN2C(=O)[C@H](C(C)C)n2cc(-c3ccc(COc4c(-c5c(C)c(F)cc6[nH]ncc56)c(C5CC5)cc5c(N6CCC=CCC6)nc(OC[C@H](C)OC)nc45)cc3)nn2)cc1` [Example 158, (2S,4R)-1-((2S)-2-(4-(4-(((6-cyclopropyl-7-(6-fluoro-5-methyl-1H-indazol-4-yl)-2-((S)-2-methoxypropoxy)-4-(2,3,6,7-tetrahydro-1H-azepin-1-yl)quinazolin-8-yl)oxy)methyl)phenyl)-1H-1,2,3-triazol-1-yl)-3-methylbutanoyl)-N—((R)-1-(4-(1-ethyl-1H-pyrazol-5-yl)phenyl)-2-hydroxyethyl)-4-hydroxypyrrolidine-2-carboxamide], the DC50 in experiment [1] fell in the range of 10 to 100 nM. For the same molecule, in experiment [2] (Homo sapiens, ASPC1, 144 h), the IC50 lay within 10 to 100 nM.
